Results taken from patent US20100029773A1 (priority 2004, published 2010).

Legend:
[1] = system: PrPSc in scrapie-infected N2a (ScN2a) cells; assay: cells; type: cell-based, mouse; details: for EC50: Mus musculus, ScN2a, read-out: EC50 of clearance of PrPSc from the cells; for activity against PrPSc propagation in cell culture: ScN2a cells, first screening at 15 mM (so in the source), 2 days
[2] = molecular target: association between PrPC and PrPSc (recombinant mouse PrP binding to PrP-Sc aggregates from human CJD brain) (Mus musculus, UniProt P04925); set-up: species or system mouse rPrP; human PrP-Sc; details: for classification in primary SIFT screening: primary hit = at least approx. 50% of the effect of 17 μM DOSPA on sum of bins in green sectors 1-5; for validation in SIFT dilution series (dose-dependent inhibition): six point dilution series 0.1-100 mM (so in the source)
RML scrapie = details: for prolongation of the median of the survival time versus vehicle (75% DMSO) group: daily intraperitoneal, days 102-115 post intracerebral RML infection, 125-500 nmol
[3] = system: PrP-Sc deposits in spleen; set-up: species or system C57Bl6 mice; details: mouse, in vivo
α-synuclein = α-synuclein (Homo sapiens, UniProt P37840); assay: DMSO-induced α-synuclein aggregation in vitro (fluorescence cross-correlation and SIFT analysis); type: biochemical; details: 10 μM in 1% DMSO, 3-5 h
[4] = system: PrPSc in scrapie-infected N2a (ScN2a) cells; details: cell culture; cited from earlier work

Chain of association between PrPC and PrPSc (recombinant mouse PrP binding to PrP-Sc aggregates from human CJD brain) (P04925 23-231 limits assumed): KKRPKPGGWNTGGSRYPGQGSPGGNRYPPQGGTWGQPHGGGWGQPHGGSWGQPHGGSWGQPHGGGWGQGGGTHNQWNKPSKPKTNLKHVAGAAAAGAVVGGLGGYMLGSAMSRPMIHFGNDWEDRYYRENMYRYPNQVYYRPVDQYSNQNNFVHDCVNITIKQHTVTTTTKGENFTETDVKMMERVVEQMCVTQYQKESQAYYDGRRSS

| Structure (SMILES) | classification in primary SIFT screening [2] | validation in SIFT dilution series (dose-dependent inhibition) [2] | prolongation of the median of the survival time versus vehicle (75% DMSO) group (RML scrapie) | further results |
| --- | --- | --- | --- | --- |
| O=C(NN=Cc1ccc2ccccc2c1)c1ccc(O)c(O)c1 [293G02, 3,4-dihydroxy-N′-(naphthalen-2-ylmethylene)-benzohydrazide] | primary SIFT hits | validated in SIFT dilution series | 9.5 days | EC50 [1]: ~2 µM; activity against PrPSc propagation in cell culture [1]: strongest cell culture activity; PrP-Sc deposits in spleen tissue [3]: no signs of PrP-Sc deposition could be detected; inhibition of formation of multimeric α-synuclein complexes (α-synuclein): inhibiting the formation of multimeric α-synuclein complexes to a large extent |
| O=C(NN=Cc1ccc2ccccc2c1)c1ccccc1O [297F03, 2-hydroxy-N′-(naphthalen-2-ylmethylene)-benzohydrazide] | primary SIFT hits | validated in SIFT dilution series | – | – |
| O=C(NN=Cc1ccc2ccccc2c1)c1ccc(O)cc1O [301C09, 2,4-dihydroxy-N′-(naphthalen-2-ylmethylene)-benzohydrazide] | primary SIFT hits | validated in SIFT dilution series | – | – |
| O=C(NN=Cc1ccc(Cl)cc1Cl)c1ccc(O)c(O)c1 [305E04, 3,4-dihydroxy-N′-(2,4-dichlorobenzylidene)-benzohydrazide] | primary SIFT hits | validated in SIFT dilution series | – | – |
| O=C(NN=Cc1ccc2ccccc2c1)c1cccc(Cl)c1 [306H03, 3-chloro-N′-(naphthalen-2-ylmethylene)-benzohydrazide] | primary SIFT hits | validated in SIFT dilution series | – | – |
| COc1ccc(C=NNC(=O)c2cccc(F)c2)cc1Br [309F02, 3-fluoro-N′-(3-bromo-4-methoxybenzylidene)-benzohydrazide] | primary SIFT hits | validated in SIFT dilution series | 11.5 days | – |
| COc1cc(C=NN=C(N)N)ccc1OCc1c(C)c(C)c(Br)c(C)c1C [313B02, 1-(4-(4-bromo-2,3,5,6-tetramethylbenzyloxy)-3-methoxybenzylidene)-2-diaminomethylene-hydrazine] | primary SIFT hits | validated in SIFT dilution series | no such prolongation | EC50 [1]: ~6 µM; toxic signs during treatment (RML scrapie; intraperitoneal 50 μl per day of 5 mM, reduced to 2.5 mM after day 4): toxic signs |
| CCCCCCCC/C=C\CCCCCCCCOCC(C[N+](C)(C)CCNC(=O)C(CCCNCCCN)NCCCN)OCCCCCCCC/C=C\CCCCCCCC.Cl.Cl.Cl.Cl.[Cl-] (centres unmarked) [DOSPA, reference compound] | – | – | – | activity against PrPSc propagation in cell culture [1]: PrPSc is cleared from the infected cells; SIFT signal in sectors of aggregates predominantly labelled with green rPrP ([2]; 17 μM): reduced SIFT signal; inhibition of PrPSc formation in scrapie-infected mouse cells (previous finding) [4]: inhibit PrPSc formation |
